In patent publication US20080108641A1, “Compounds for treating inflammatory disorders, demyelinating disdorders and cancers” (priority 2006, published 2008):

Assays:
[1] = test system: IL-4; assay: Mediator release, IL-4 (Con A-stimulated PBML, sandwich ELISA); type: cell-based; details: Homo sapiens
Procedure: (§1) In this experiment, test compound and/or vehicle were preincubated with human peripheral blood mononuclear leukocyte (PBML, 1×10^6/ml) in RPMI buffer pH 7.4 for 2 hours. Concanavalin A (Con A, 20 μg/ml) was then added to stimulate the cells overnight in 5% CO2 at 37° C. IL-4 and IL-10 cytokine levels in the conditioned medium were then quantified using a sandwich ELISA kit. Compounds were screened at 10, 1, 0.1, 0.01 and 0.001 μM.

[2] = test system: IL-10; assay: Mediator release, IL-10 (Con A-stimulated PBML, sandwich ELISA); type: cell-based; details: Homo sapiens
Procedure: as §1

[3] = test system: B-lymphocyte cells isolated from the spleen; assay: Cell proliferation, B-Cell + LPS ([3H]thymidine incorporation); type: cell-based, balb/c mice; details: Mus musculus
Procedure: B-lymphocyte cells isolated from the spleen of balb/c mice weighing 17±1 g were used. Test compound and/or vehicle were incubated with the cells (1.5×10^6/ml) in the presence of 10 μg/ml lipopolysaccharide (LPS) in AIM-V medium pH 7.4 at 37° C. for 24 hours. [^3H]Thymidine (120 nM) was then added for an additional overnight incubation period. Thymidine incorporation was assessed by liquid scintillation counting.
(§2) Test compound-induced suppression of cell proliferation by 50 percent or more (≧50%) relative to vehicle control response indicates significant inhibitory activity.

[4] = test system: T-lymphocyte cells isolated from thymus; assay: Cell proliferation, T-Cell + Con A ([3H]thymidine incorporation); type: cell-based, balb/c mice; details: Mus musculus
Procedure: T-lymphocyte cells isolated from thymus of balb/c mice weighing 17±1 g were used. Test compound and/or vehicle is incubated with the cells (4×10^6/ml) in the presence of 3 μg/mL Concanavalin A (Con A) in AIM-V medium pH 7.4 at 37° C. for 24 hours. [^3H]Thymidine (120 nM) was then added for an additional overnight incubation period. Thymidine incorporation was assessed by liquid scintillation counting. Compounds were screened at 10, 1, 0.1, 0.01 and 0.001 μM.
as §2

[5] = test system: arthritis induced by monoclonal antibodies raised against type II collagen, plus LPS; assay: Collagen monoclonal antibody (mABs) + LPS induced arthritis, hind paw volume; type: in vivo, BALB/c strain mice; details: for inhibition of increase in hind paw volume: 30 mg/kg orally x3
Procedure: Groups of 3 BALB/c strain mice, 6-7 weeks of age, were used for the induction of arthritis by monoclonal antibodies (mABs) raised against type II collagen, plus lipopolysaccharide (LPS). A combination of 4 different mABs (D8, F10, DI-2G and A2) totaling 4 mg/mouse was administered to the animal intravenously on day 0, followed by intravenous challenge with […] of LPS 72 hours later (day 3). From day 3, test substance and vehicle were each administered orally once daily for 3 consecutive days. For each animal, volumes of both hind paws were measured using a plethysmometer with water cell (12 mm diameter) on Days 0, 5, 7, 10, 14 and 17.
C0 (Cn): volume of day 0 (day n) in vehicle control
T0 (Tn): volume of day 0 (day n) in test compound-treated group
Reduction of edema in the hind paws by 30% or more is considered significant.

CCN(CC)CCNc1ccc2ncn3c4ccc(O)cc4c(=O)c1c23 [Symadex™]
inhibition at 0.001 µM ([1]; 1 nM, read-out: % Growth Inhibition): 8%
inhibition at 0.01 µM ([1]; 10 nM, read-out: % Growth Inhibition): 7%
inhibition at 0.1 µM ([1]; 0.1 μM, read-out: % Growth Inhibition): 2%
inhibition at 1 µM ([1]; 1 μM, read-out: % Growth Inhibition): -9%
inhibition at 10 µM ([1]; 10 μM, read-out: % Growth Inhibition): 105%
IC50 ([1]; IL-4 release): 3330 nM
inhibition at 0.001 µM ([2]; read-out: % inhibition of IL-10 release, 1 nM, read-out: % Growth Inhibition): 1%
inhibition at 0.01 µM ([2]; read-out: % inhibition of IL-10 release, 10 nM, read-out: % Growth Inhibition): 16%
inhibition at 0.1 µM ([2]; read-out: % inhibition of IL-10 release, 0.1 μM, read-out: % Growth Inhibition): 16%
inhibition at 1 µM ([2]; read-out: % inhibition of IL-10 release, 1 μM, read-out: % Growth Inhibition): 39%
inhibition at 10 µM ([2]; read-out: % inhibition of IL-10 release, 10 μM, read-out: % Growth Inhibition): 99%
IC50 ([2]; IL-10 release): 1200 nM
IC50 [3]: 38 nM
inhibition at 0.001 µM ([3]; read-out: % Growth Inhibition): 0%
inhibition at 0.01 µM ([3]; read-out: % Growth Inhibition): 38%
inhibition at 0.1 µM ([3]; read-out: % Growth Inhibition): 80%
inhibition at 1 µM ([3]; read-out: % Growth Inhibition): 101%
inhibition at 10 µM ([3]; read-out: % Growth Inhibition): 103%
IC50 [4]: 14 nM
inhibition at 0.001 µM ([4]; read-out: % Growth Inhibition): 10%
inhibition at 0.01 µM ([4]; read-out: % Growth Inhibition): 44%
inhibition at 0.1 µM ([4]; read-out: % Growth Inhibition): 82%
inhibition at 1 µM ([4]; read-out: % Growth Inhibition): 103%
inhibition at 10 µM ([4]; read-out: % Growth Inhibition): 104%
increase in hind paw volume ([5]; day 5, 3 consecutive daily oral doses at 30 mg/kg from day 3, vehicle 42%): 32%
inhibition of increase in hind paw volume ([5]; day 10): 61%
increase in hind paw volume ([5]; day 10, 3 consecutive daily oral doses at 30 mg/kg, vehicle 75%): 29%
inhibition of increase in hind paw volume ([5]; day 14): 74%
increase in hind paw volume ([5]; day 14, 3 consecutive daily oral doses at 30 mg/kg, vehicle 70%): 18%
inhibition of increase in hind paw volume ([5]; day 17): 59%
increase in hind paw volume ([5]; day 17, 3 consecutive daily oral doses at 30 mg/kg, vehicle 47%): 19%
